From the NIST ThermoML archive (doi:10.1021/je700363m)
Numbers after ± are expanded uncertainties.

Test: wn = mass fraction of the nth substance listed
Details: 101 kPa, Liquid; for viscosity: Capillary tube (Ostwald / Ubbelohde) method

Structure (SMILES) | viscosity (298.15 K, w1 = 0.0931) [mPa·s] | mass density (298.15 K, w1 = 0.049) [kg/m3] | mass density (298.15 K, w1 = 0.0538) [kg/m3] | mass density (298.15 K, w1 = 0.0653) [kg/m3] | viscosity (313.15 K, w1 = 0.0931) [mPa·s] | viscosity (313.15 K, w1 = 0.0478) [mPa·s] | viscosity (313.15 K, w1 = 0.0906) [mPa·s] | mass density (313.15 K, w1 = 0.02) [kg/m3] | mass density (313.15 K, w1 = 0.05) [kg/m3] | viscosity (319.15 K, w1 = 0.155) [mPa·s] | mass density (319.15 K, w1 = 0.155) [kg/m3] | viscosity (323.25 K, w1 = 0.172) [mPa·s] | mass density (323.25 K, w1 = 0.172) [kg/m3] | mass density (333.15 K, w1 = 0.02) [kg/m3] | mass density (333.15 K, w1 = 0.05) [kg/m3] | mass density (333.32 K, w1 = 0.214) [kg/m3] | viscosity (333.35 K, w1 = 0.214) [mPa·s]
[K+].[K+].[O]=[Cr](=[O])([O-])[O-] [potassium chromate(VI)] + O | 0.9285 ± 0.0077 | 1034.6 ± 1 | 1038.3 ± 1 | 1046.8 ± 1 | 0.7309 ± 0.0062 | – | – | – | – | – | – | – | – | – | – | – | –
[K+].[K+].[O]=[Cr](=[O])([O-])[O][Cr](=[O])(=[O])[O-] [potassium dichromate] + O | – | – | – | – | – | 0.6465 ± 0.0055 | 0.6805 ± 0.0058 | 1006.5 ± 1.1 | 1026.8 ± 1.2 | 0.6914 ± 0.0059 | 1166.5 ± 1.4 | 0.6658 ± 0.0057 | 1184.2 ± 1.5 | 997 ± 1.3 | 1016.4 ± 1.3 | 1232.1 ± 1.6 | 0.6307 ± 0.0054
